In general, logP refers to a log measure of how a compound divides between an organic and an aqueous phase.

Data set [1] addresses T1, [3H]-NMS-occupied muscarinic hM2 subtype (Homo sapiens, UniProt P08172).
T1 construct: expressed in transfected cells; host or cells: CHO cells, stably transfected; membrane fractions
T1 sequence (P08172 1-466): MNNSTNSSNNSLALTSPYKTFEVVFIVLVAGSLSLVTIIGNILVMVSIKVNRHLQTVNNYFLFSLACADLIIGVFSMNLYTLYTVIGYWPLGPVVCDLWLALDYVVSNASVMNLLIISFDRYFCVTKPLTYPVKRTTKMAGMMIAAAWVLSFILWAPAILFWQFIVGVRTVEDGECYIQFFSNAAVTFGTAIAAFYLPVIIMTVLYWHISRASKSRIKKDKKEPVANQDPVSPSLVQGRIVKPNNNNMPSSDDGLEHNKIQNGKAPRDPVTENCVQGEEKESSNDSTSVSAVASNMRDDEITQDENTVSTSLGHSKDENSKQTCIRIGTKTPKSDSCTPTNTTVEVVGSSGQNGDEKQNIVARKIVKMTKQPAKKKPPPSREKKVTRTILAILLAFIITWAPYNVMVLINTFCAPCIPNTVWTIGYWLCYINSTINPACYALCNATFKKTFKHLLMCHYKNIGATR
Description: One point kinetic (off-rate) assay of [3H]-NMS dissociation. Format: binding. As for the experimental part: (§1) All tested compounds were purchased from Merck KGaA (Darmstadt, Germany). The radioligand binding experiments were performed with membranes from Chinese Hamster Ovary (CHO) cells stably transfected with the five cloned human muscarinic receptor subtypes (hM1-5). Membrane fractions were prepared according to the protocol, which have been previously described; membranes were stored at −80 °C until use. Nonspecific binding was defined by the radioactivity bound in the presence of 10 µM atropine.
(§2) Off-rate assays were performed as described elsewhere to estimate the affinity of the ligands for the [^3H]-NMS-occupied receptor (log Kocc). Briefly, a high concentration of membranes (about 0.1 mg/mL) was incubated with a high concentration of [^3H]-NMS (2 nM) for 60 min at room temperature (mix membrane). Next, 100 µL aliquots were distributed into polypropylene tubes that were empty or in a final volume of 1 mL binding buffer with 1 µM atropine alone and in the presence of a range of concentrations of tested compound (1 nM–0.1 mM).
(§3) The effect on the radioligand dissociation of each tested ligand was determined at 0 min and at one time point, which was chosen to be ca 2.5 dissociation half-lives of [^3H]-NMS alone from each subtype receptors. Later (80 min for hM1, 20 min for hM2 and 70 min for hM5), the samples were filtered and counted as previously reported. Non specific binding was measured as previously reported.
(§4) All the results are expressed as means ± SEM obtained from 3-4 independent experiments each one performed in duplicate.

The target in data set [2] is five human muscarinic receptors subtypes (hM1–hM5). Briefly: Equilibrium binding, summary statements over the five subtypes. The method, then: as §1
(§5) Aliquots of membranes (25–70 µg/mL) were added and incubated for 2 h at room temperature, filtered through UniFilter GF/B plates (PerkinElmer Life and Analytical Science, Monza, Italy) using a FilterMate cell harvester (PerkinElmer Life and Analytical Science, Monza, Italy). The filters were washed several times with ice-cold MilliQ water. Then, the plates were counted in a β-counter (TopCount NXT microplate scintillation counter, PerkinElmer Life and Analytical Science, Monza, Italy).
(§6) Data points from radioligand inhibition binding curve were fitted to models using nonlinear regression equation to determine inhibitor potency (IC50) estimates, which were then converted to Ki values as appropriate.
as §4

The target in a further data set is T2, hM2 subtype (Homo sapiens, UniProt P08172).
T2 construct: expressed in transfected cells; host or cells: CHO cells, stably transfected; membrane fractions
T2 sequence (P08172 1-466): T1 sequence (P08172 1-466)
Briefly: Full time course [3H]-NMS dissociation kinetic assay. Format: binding. Conditions: versus control, concentration 0.3 μM. The method, then: as §1
Dissociation binding assays were conducted in assay buffer at room temperature as above described. Membranes were preincubated with 2 nM [^3H]-NMS for 60 min at room temperature (mix membrane). […] Nonspecific binding was measured in separately prepared tubes containing 100 µL of mix membrane plus atropine 10 µM. […]
Radioligand dissociation rates in absence or in presence of the allosteric modulator were analyzed by non linear regression according to the equation for mono-exponential decay using GraphPad Prism 5.02.
as §4

For data set [3] the following is noted: ref DrugBank [16]; cited from earlier work.
For data set [4], the target named is T3, [3H]-NMS-occupied muscarinic hM5 subtype (Homo sapiens, UniProt P08912).
T3 construct: expressed in transfected cells; host or cells: CHO cells, stably transfected; membrane fractions
T3 sequence (P08912 1-532): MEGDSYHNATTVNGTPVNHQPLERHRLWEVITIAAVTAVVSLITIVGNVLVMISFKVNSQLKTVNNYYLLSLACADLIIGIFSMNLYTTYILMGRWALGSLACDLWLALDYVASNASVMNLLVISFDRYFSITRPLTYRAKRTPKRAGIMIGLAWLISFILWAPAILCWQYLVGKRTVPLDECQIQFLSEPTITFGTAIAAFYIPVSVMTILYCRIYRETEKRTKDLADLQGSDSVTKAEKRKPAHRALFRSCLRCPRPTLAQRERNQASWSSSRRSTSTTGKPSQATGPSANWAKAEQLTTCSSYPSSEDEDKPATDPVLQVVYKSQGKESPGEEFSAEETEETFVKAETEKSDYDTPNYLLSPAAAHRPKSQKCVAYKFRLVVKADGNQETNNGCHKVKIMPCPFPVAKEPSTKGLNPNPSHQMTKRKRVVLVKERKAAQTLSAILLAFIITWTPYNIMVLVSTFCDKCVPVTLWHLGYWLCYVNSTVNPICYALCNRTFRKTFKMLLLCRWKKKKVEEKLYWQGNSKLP
Briefly: One point kinetic (off-rate) assay of [3H]-NMS dissociation. Format: binding. Conditions: read-out: log Kocc hM5 (converted). The method, then:
as §1, §2, §3
Data from one-point kinetic experiments were analyzed in order to obtain estimates of the affinity of an allosteric ligand for the [^3H]-NMS occupied receptor (log Kocc) in a single step, using an equation introduced in GraphPad Prism 5.02 [33, 34].
as §4

In another data set the target is T4, hM3 muscarinic receptor (Homo sapiens, UniProt P20309).
T4 construct: expressed in transfected cells; host or cells: CHO cells, stably transfected; membrane fractions
Briefly: Equilibrium inhibition binding with [3H]-NMS, CHO cell membranes. The note with it: [3H]-NMS 0.2 nM, mean ± SEM of 3-4 experiments, read-out: pKi hM3 (converted). The method, then: as §1, §5, §6, §4

The next data set addresses T5, hM5 muscarinic receptor (Homo sapiens, UniProt P08912).
T5 construct: expressed in transfected cells; host or cells: CHO cells, stably transfected; membrane fractions
T5 sequence (P08912 1-532): T3 sequence (P08912 1-532)
Described as above. Conditions: [3H]-NMS 0.2 nM, CHO membranes, mean ± SEM of 3-4 experiments; read-out: pKi hM5 (converted). The method, then: as §1, §5, §6, §4

Structures are written as SMILES.

T4 sequence (P20309 whole entry): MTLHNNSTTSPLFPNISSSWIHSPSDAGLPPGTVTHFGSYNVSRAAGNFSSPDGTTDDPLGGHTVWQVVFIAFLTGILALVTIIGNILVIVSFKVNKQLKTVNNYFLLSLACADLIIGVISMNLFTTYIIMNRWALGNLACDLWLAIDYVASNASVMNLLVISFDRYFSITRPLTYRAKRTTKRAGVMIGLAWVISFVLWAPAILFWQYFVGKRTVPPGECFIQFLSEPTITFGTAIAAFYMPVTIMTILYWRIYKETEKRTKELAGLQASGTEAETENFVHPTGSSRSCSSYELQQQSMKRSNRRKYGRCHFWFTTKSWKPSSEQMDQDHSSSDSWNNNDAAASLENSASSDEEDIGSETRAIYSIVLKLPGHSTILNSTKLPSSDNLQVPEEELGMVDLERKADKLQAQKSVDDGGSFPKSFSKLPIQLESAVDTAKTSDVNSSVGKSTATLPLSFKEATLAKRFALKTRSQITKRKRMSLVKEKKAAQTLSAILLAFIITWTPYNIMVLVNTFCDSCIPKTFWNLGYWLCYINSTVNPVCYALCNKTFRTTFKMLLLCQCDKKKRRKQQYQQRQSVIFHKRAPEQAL

Take `Cc1cc(N)c2ccccc2[n+]1CCCCCCCCCC[n+]1c(C)cc(N)c2ccccc21` [dequalinium]: the “selectivity ratio hM2/hM1” value in data set [1] (from log Kocc values) came out at 10.7. Besides, in data set [1] (from log Kocc values), the “selectivity ratio hM2/hM5” value is listed as 174. Besides, the Kd in data set [1] (read-out: Log Kocc hM2 (converted)) was 19.1 nM; in data set [4], 3310 nM. The “pKi values (muscarinic subtypes overall)” value in data set [2] is recorded as “greater than 7.0”. This molecule also had a t1/2 reduction at hM2 subtype of 17.3 fold. For the same molecule, in data set [3], the logP is 0.2. In addition, the Ki at hM3 muscarinic receptor was 170 nM; on hM5 muscarinic receptor, 158 nM.
